Holding throughout (type): cell-based
One experiment concerns E. coli (NCTC 13352). As to the kind of experiment: Antibacterial activity, agar dilution MIC (CLSI). The following applies: Escherichia coli, NCTC13352, ESBL TEM 10. As to the method: (§1) The biological activity of representative compounds according to the invention against various bacterial strains was investigated. In a typical study, overnight grown bacterial cultures were diluted appropriately and inoculated on the agar media containing doubling dilutions of the test compounds. Observations for growth or no growth was performed after 16-20 hours of incubation at 35±2° C. in the ambient air. The overall procedure was performed as per Clinical and Laboratory Standards Institute (CLSI) recommendations (Clinical and Laboratory Standards Institute (CLSI), Performance Standards for Antimicrobial Susceptibility Testing, 20th Informational Supplement, M 100-S20, Volume 30, No. 1, 2010). […] The Compound (XI), which is the free zwitterionic form of Compound (X), was also studied for the antibacterial activity profile.
In general terms: In agar dilution, organisms are placed on agar that contains the substance at set levels.

A further experiment concerns E. coli (NCTC 13353). As to the kind of experiment: Antibacterial activity, agar dilution MIC (CLSI). Conditions: Escherichia coli, NCTC13353, ESBL CTXM-15. The protocol: as §1
The next experiment relates to K. pneumoniae (S48). Nature of the experiment: Antibacterial activity, agar dilution MIC (CLSI). The following applies: Klebsiella pneumoniae, ESBL NDM, SHV. The protocol:
as §1

Another experiment relates to P. aeruginosa (MBL18). As to the kind of experiment: Antibacterial activity, agar dilution MIC (CLSI). The following applies: Pseudomonas aeruginosa, ESBL VIM. The protocol:
as §1

For the next experiment, the system named is E. coli (7MP). As to the kind of experiment: Antibacterial activity, agar dilution MIC (CLSI). The following applies: Escherichia coli, ESBL SHV, CMY. The protocol: as §1
Another experiment has as its system K. pneumoniae (H521). Nature of the experiment: Antibacterial activity, agar dilution MIC (CLSI). Conditions: Klebsiella pneumoniae, ESBL KPC. The protocol:
as §1

A further experiment relates to K. pneumoniae J102. As to the kind of experiment: Antibacterial activity in combination with Ceftazidime, agar dilution MIC. Conditions: Klebsiella pneumoniae; agent alone; K. pneumoniae J102, ESBL TEM-1, SHV-5, OMP. As to the method:
as §1
(§2) The antibacterial activity of the Compound (XI) was also studied in combination with other beta-lactam antibacterial agents. […] The antibacterial activity of the combination of Compound (XI) (4 μg/ml) and Ceftazidime was compared with (i) combination of Cetftazidime and Avibactam (4 μg/ml); and (ii) Imipenem alone.

The test system of a further experiment is E. coli H483. The experiment is described as above. The following applies: Escherichia coli; agent alone; E. coli H483, ESBL CMY-2. As to the method:
as §1, §2

In another experiment the test system is K. pneumoniae J101. Described as above. The following applies: Klebsiella pneumoniae; agent alone; K. pneumoniae J101, ESBL TEM-1, SHV-12, OMP. As to the method: as §1, §2
Experiment [1] has as its system K. pneumoniae ATCC 700603. The description is as above. The following applies: Klebsiella pneumoniae, ATCC700603; agent alone; K. pneumoniae ATCC 700603, ESBL SHV-18. As to the method:
as §1, §2

The subject of experiment [2] is resistant ESBL strains of K. pneumoniae, E. coli and P. aeruginosa. As to the kind of experiment: Antibacterial activity profile. As to the method: as §1

Molecules are shown by their SMILES. Converted amounts (≈) assume the structure as drawn. Where only a bound is given, the exact number is not on record here.

What is called MIC is the least concentration at which growth counts as inhibited. Take `CO/N=C(\C(=O)N[C@@H]1C(=O)N2C(C(=O)[O-])=C(C[N+]3(C)CCCC3)CS[C@H]12)c1csc(N)n1` [Cefepime]: the MIC with E. coli (NCTC 13352) is 2 µg/mL (≈ 4.16 µM); against E. coli (NCTC 13353) it was above 32 µg/mL; against K. pneumoniae (S48), above 32 µg/mL; against P. aeruginosa (MBL18), above 32 µg/mL; in the experiment on E. coli (7MP), 16 µg/mL (≈ 33.3 µM); in the experiment on K. pneumoniae (H521), above 32 µg/mL.
As to `CC(C)(O/N=C(\C(=O)N[C@@H]1C(=O)N2C(C(=O)[O-])=C(C[n+]3ccccc3)CS[C@H]12)c1csc(N)n1)C(=O)O` [Ceftazidime], the MIC against E. coli (NCTC 13352), in the experiment on E. coli (NCTC 13353), with K. pneumoniae (S48), with P. aeruginosa (MBL18), in the experiment with E. coli (7MP) and with K. pneumoniae (H521) was above 32 µg/mL each time. The minimal inhibitory concentration (MIC) in the experiment with K. pneumoniae J102 is above 32 µg/mL; with E. coli H483 it was above 32 µg/mL; in the experiment with K. pneumoniae J101 it was above 32 µg/mL; in experiment [1] it was 16 µg/mL.
On to `NC[C@@H]1CC[C@@H]2CN1C(=O)N2OS(=O)(=O)O` [Compound (XI), (2S, 5R)-6-sulfooxy-2-(aminomethyl)-7-oxo-1,6-diaza-bicyclo[3.2.1]octane], for which the minimum inhibitory concentration (MIC) was 2 µg/mL (≈ 7.96 µM) with E. coli (NCTC 13352); 1 µg/mL (≈ 3.98 µM) in the experiment with E. coli (NCTC 13353); 1 µg/mL (≈ 3.98 µM) against K. pneumoniae (S48); 8 µg/mL (≈ 31.8 µM) against P. aeruginosa (MBL18); 4 µg/mL (≈ 15.9 µM) against E. coli (7MP); 1 µg/mL (≈ 3.98 µM) with K. pneumoniae (H521). The “antibacterial activity (in words)” value in experiment [2] is given as “good antibacterial activity”.
For the molecule `C[C@@H](O)[C@H]1C(=O)N2C(C(=O)O)=C(SCCN=CN)C[C@H]12` [Imipenem], the minimal inhibitory concentration (MIC) in the experiment on E. coli (NCTC 13352) is 0.25 µg/mL (≈ 0.835 µM); in the experiment on E. coli (NCTC 13353) it was 0.25 µg/mL (≈ 0.835 µM); in the experiment with K. pneumoniae (S48), 16 µg/mL (≈ 53.4 µM); in the experiment on P. aeruginosa (MBL18), 16 µg/mL (≈ 53.4 µM); in the experiment on E. coli (7MP) it was 1 µg/mL (≈ 3.34 µM); in the experiment on K. pneumoniae (H521) it was 16 µg/mL (≈ 53.4 µM). For the same molecule, the MIC with K. pneumoniae J102 stood at 8 µg/mL; in the experiment with E. coli H483, 0.25 µg/mL; with K. pneumoniae J101, 2 µg/mL; in experiment [1] it was 0.12 µg/mL.
